Results published in paper PMC4559561, “Radioiodinated PARP1 tracers for glioblastoma imaging” (EJNMMI Research, 2015).
Where “and” joins values, the source holds several entries; their conditions need not be identical. Equal values may be shown once. One block for each compound: values may come before it.

What was measured:
[1] = Plasma protein fraction by rapid equilibrium dialysis in mouse serum; type: in vitro ADME; conditions: 10 μM compound in mouse serum vs PBS, 37 °C, read-out: Plasma Free Fraction
Protocol: The plasma protein fraction was determined using the Rapid Equilibrium Dialysis Device System (Life Technologies, Grand Island, NY) according to the manufacturer’s protocol. Membrane dialysis was performed with 10 μM of compound in mouse serum (500 μL) on one side of the membrane and PBS (750 μL) on the other side. The system was sealed with parafilm and incubated for 4 h at 37 °C on an orbital shaker set to 250 rpm. Thereafter, 400 μL of solution was taken from both sides, and samples were treated twice with an equal amount of AcN and vortexed to remove protein before HPLC analysis. After injection (100 μL), the I-PARPi peaks from each sample were then integrated and the protein bound fraction was determined. The data was analyzed using Prism 6.0c.

[2] = test system: U87 MG subcutaneous tumors; assay: In vivo blocking study: PARPi-FL uptake in tumors, ex vivo epifluorescence imaging; set-up: species or system mouse
Text: One hour post injection, the mice were sacrificed and the tumors were resected and imaged with the IVIS spectrum fluorescence imaging system (PerkinElmer, Waltham, MA) using Living Image 4.4 software. The tumors were also imaged microscopically with the 5Live fluorescent confocal microscope using the 488 nm laser for PARPi-FL excitation.

[3] = target: T1, PARP1 high specific activity (HSA) enzyme (Homo sapiens, UniProt P09874); assay: PARP-1 IC50 determination, commercial colorimetric assay (Trevigen); type: biochemical; conditions: 0.5 U PARP1 HSA enzyme, 10 min, histone-coated plates, triplicate
T1 construct: purchased Trevigen, Gaithersburg, MD
T1 sequence (P09874 whole entry): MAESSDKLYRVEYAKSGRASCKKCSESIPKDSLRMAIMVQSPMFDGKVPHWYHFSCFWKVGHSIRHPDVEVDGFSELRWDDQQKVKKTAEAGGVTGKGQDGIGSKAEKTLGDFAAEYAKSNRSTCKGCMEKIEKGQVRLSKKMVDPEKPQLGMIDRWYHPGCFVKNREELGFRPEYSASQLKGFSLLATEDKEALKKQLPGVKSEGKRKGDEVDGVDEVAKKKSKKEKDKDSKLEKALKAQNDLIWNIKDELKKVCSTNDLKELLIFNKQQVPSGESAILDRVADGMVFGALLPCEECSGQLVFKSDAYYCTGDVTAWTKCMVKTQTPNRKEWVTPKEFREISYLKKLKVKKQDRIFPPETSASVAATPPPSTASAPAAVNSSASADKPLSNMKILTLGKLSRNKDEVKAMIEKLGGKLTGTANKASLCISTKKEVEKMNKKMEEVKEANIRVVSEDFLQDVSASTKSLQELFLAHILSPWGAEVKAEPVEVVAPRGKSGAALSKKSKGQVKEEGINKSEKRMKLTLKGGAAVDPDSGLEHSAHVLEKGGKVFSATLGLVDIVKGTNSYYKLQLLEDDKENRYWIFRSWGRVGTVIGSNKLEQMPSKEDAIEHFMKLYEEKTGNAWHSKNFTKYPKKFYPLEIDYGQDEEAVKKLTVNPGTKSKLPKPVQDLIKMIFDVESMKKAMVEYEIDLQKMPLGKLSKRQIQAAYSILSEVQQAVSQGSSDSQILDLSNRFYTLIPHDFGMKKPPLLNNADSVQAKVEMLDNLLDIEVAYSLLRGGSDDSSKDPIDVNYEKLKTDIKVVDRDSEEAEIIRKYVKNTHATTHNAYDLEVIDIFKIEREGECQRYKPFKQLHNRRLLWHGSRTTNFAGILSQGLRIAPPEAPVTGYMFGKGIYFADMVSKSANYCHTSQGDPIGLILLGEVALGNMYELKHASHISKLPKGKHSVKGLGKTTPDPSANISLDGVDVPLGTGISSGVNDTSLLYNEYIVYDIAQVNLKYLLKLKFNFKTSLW
Protocol: A commercially available colorimetric assay (Trevigen, Gaithersburg, MD) was used to measure PARP-1 activity in vitro in the presence of varying concentrations of the different iodo-[…]. […] All experiments were carried out in triplicate. […] All reaction mixtures were adjusted to a final volume of 50 μl, and a final concentration of 1 % DMSO in assay buffer. The remainder of the assay was performed according to the manufacturer's instructions. PARP1 activity was measured by absorbance at 450 nm in each well using a SpectraMax M5 spectrophotometer with SoftMax Pro software (Molecular Devices, Sunnyvale, CA).

[4] = Chemical hydrophobicity index (CHI) by reverse phase HPLC, Log P derived from CHI; type: physicochemical; conditions: for CHI (chromatographic hydrophobicity index): from HPLC retention time against standards
Protocol: Chemical hydrophobicity indices (CHIs) were measured using procedures developed previously. Briefly, reverse phase HPLC was used to measure the retention times of a set of standards with known CHI. A standard curve was then created to calculate the CHIs of all iodo-PARPi based on the HPLC retention time.

U87 MG cells = assay: In vitro blocking study: competitive inhibition of PARPi-FL uptake; type: cell-based, human; conditions: 20 min
Protocol: U87 MG cells were seeded into a 96-well plate in a concentration of 1 × 10^4 cells per well. After 24 h, the cells were incubated with either the fluorescent PARP1 inhibitor PARPi-FL (250 nM) alone or with one of the iodo-PARPi inhibitors at a 100-fold higher concentration (25 μM) for 20 min. […] All incubation solutions also included Hoechst 33342 nuclear stain (Sigma-Aldrich, St. Louis, MO). The cells were washed twice with media and once with PBS for 5 min each and imaged on an LSM 5Live confocal microscope (Zeiss, Oberkochen, Germany). All wells were imaged with the DAPI filter for the Hoechst staining and the FITC filter for the PARPi-FL staining. The DAPI and FITC channels were co-registered, and the green fluorescence in the location of the Hoechst staining was quantified for each image. The percent reduction in PARPi-FL uptake was calculated based on the level of fluorescence intensity seen in each image and normalized to the cells receiving no iodo-PARPi inhibitor. Experiments were performed in triplicate.

[5] = In vitro whole blood stability; type: in vitro ADME; conditions: mouse blood, 37 °C, radio-HPLC
Protocol: The in vitro stability was assessed by incubating 6 μCi [^131I]-PARPi in mouse blood for 0 to 60 min at 37 °C. At baseline, 15, 30, and 60 min, the samples were immediately placed on ice and mixed 1:1 with a solution of AcN/DMSO (250 μL) and then vigorously vortexed for 30 s to precipitate out serum protein. The sample was centrifuged at 3000 RCF for 3 min at 4 °C, and the supernatant was collected. This procedure was repeated three times, and the combined supernatants were analyzed by HPLC equipped with radioactive detector (Shimadzu, Kyoto, Japan), collecting samples every 30 s. Radioactivity of each fraction was measured on a Wizard 2470 Automatic Gamma Counter (Perkin Elmer, Waltham, MA), and the blood stability was analyzed using Prism 6.0c (GraphPad Software, La Jolla, CA).

[6] = Blood half-life by serial blood sampling; type: in vivo, mouse; conditions: healthy athymic nude mice, 50 μCi i.v.
Protocol: Blood half-life was determined by measuring the activity in serial blood samplings. Specifically, healthy female nude mice (8–10 weeks old, 20–25 g in weight, n = 3) were injected via the tail vein with 50 μCi [^131I]-I2-PARPi in 200 μL of solution PBS/PEG300 (10:1). The blood was sampled from the saphenous vein at 5, 15, 30, 60, 120, and 240 min post injection. The blood was weighed and radioactivity was measured on a Wizard 2470 Automatic Gamma Counter (Perkin Elmer, Waltham, MA). Measurements in counts per minute were calculated as the mean %ID/g. The blood half-life was calculated using Prism 6.0c (GraphPad Software, La Jolla, CA).

[7] = test system: U87 MG subcutaneous xenografts; assay: Biodistribution in U87 MG xenograft mice; type: in vivo, mouse; conditions: U87 MG tumor-bearing mice, 2 h post intravenous injection
Protocol: (§1) Biodistribution experiments were conducted on female nude mice (8–10 weeks old and 20–25 g in weight, n = 21) bearing U87 MG or U251 MG subcutaneous xenografts. The radiolabeled small molecule preparation ([…] of [^131I]-I2-PARPi in 200 μL of a solution 90 % PBS 10 % PEG300) was administrated via the lateral tail vein. To determine the optimal specific activity to achieve the highest tumor to organ ratio, various specific activities were tested (5, 50, and 250 mCi/μmol) in mice bearing U87 MG tumors. The compound was allowed to circulate for 2 h post injection at which time the mice were sacrificed and organs were harvested (n = 3). After determining the optimal specific activity, the optimal time for imaging was determined by testing the drug distribution in nude mice bearing U87 MG tumors at different time points. The drug was allowed to circulate for various times (1, 2, and 6 h), after which the mice were sacrificed (n = 3). The radioactive content in the tissue of interest (blood, tumor, muscle, bone, liver, spleen, kidney, heart, lung, pancreas, brain, skin, small intestine, large intestine, stomach, tail, thyroid, and feces) was measured on a Wizard 2470 Automatic Gamma Counter and the tissue-associated activity was calculated as the mean %ID/g.

[8] = test system: U251 MG subcutaneous xenografts; assay: Biodistribution in U251 MG xenograft mice; type: in vivo, mouse; conditions: 2 h after tracer injection
Protocol: as §1

fraction unbound at 4 h, 10 μM [1]: 0.096 ± 0.015
SMILES: O=C(c1cccc(I)c1)N1CCN(C(=O)c2cc(Cc3n[nH]c(=O)c4ccccc34)ccc2F)CC1 [I1-PARPi, 4-(4-fluoro-3-(4-(3-iodobenzoyl)piperazine-1-carbonyl)benzyl)phthalazin-1(2H)-one]

SMILES: O=C(c1ccc(I)cc1)N1CCN(C(=O)c2cc(Cc3n[nH]c(=O)c4ccccc34)ccc2F)CC1 [I2-PARPi, 4-(4-fluoro-3-(4-(4-iodobenzoyl)piperazine-1-carbonyl)benzyl)phthalazin-1(2H)-one]
fraction unbound at 4 h, 10 μM [1]: 0.115 ± 0.001
reduction of PARPi-FL tumor fluorescence in vivo ([2]; I2-PARPi 125 mg/kg 30 min before PARPi-FL 2.5 mg/kg, tumors resected 1 h post injection, vs PARPi-FL alone): 78 ± 4%

IC50 [3]: 34 ± 3 nM
CHI (chromatographic hydrophobicity index) [4]: 66.7
fraction unbound at 4 h, 10 μM [1]: 0.07 ± 0.001
SMILES: O=C(Cc1cccc(I)c1)N1CCN(C(=O)c2cc(Cc3n[nH]c(=O)c4ccccc34)ccc2F)CC1 [I3-PARPi, 4-(4-fluoro-3-(4-(2-(3-iodophenyl)acetyl)piperazine-1-carbonyl)benzyl)phthalazin-1(2H)-one]

IC50 [3]: 74 ± 5 nM
CHI (chromatographic hydrophobicity index) [4]: 66.7
fraction unbound at 4 h, 10 μM [1]: 0.05 ± 0.003
SMILES: O=C(Cc1ccc(I)cc1)N1CCN(C(=O)c2cc(Cc3n[nH]c(=O)c4ccccc34)ccc2F)CC1 [I4-PARPi, 4-(4-fluoro-3-(4-(2-(4-iodophenyl)acetyl)piperazine-1-carbonyl)benzyl)phthalazin-1(2H)-one]

IC50 [3]: 107 ± 4 nM
CHI (chromatographic hydrophobicity index) [4]: 71.6
fraction unbound at 4 h, 10 μM [1]: 0.078 ± 0.014
SMILES: O=C(CCc1cccc(I)c1)N1CCN(C(=O)c2cc(Cc3n[nH]c(=O)c4ccccc34)ccc2F)CC1 [I5-PARPi, 4-(4-fluoro-3-(4-(3-(3-iodophenyl)propanoyl)piperazine-1-carbonyl)benzyl)phthalazin-1(2H)-one]

IC50 [3]: 47 ± 5 nM
CHI (chromatographic hydrophobicity index) [4]: 71.6
fraction unbound at 4 h, 10 μM [1]: 0.047 ± 0.005
SMILES: O=C(CCc1ccc(I)cc1)N1CCN(C(=O)c2cc(Cc3n[nH]c(=O)c4ccccc34)ccc2F)CC1 [I6-PARPi, 4-(4-fluoro-3-(4-(3-(4-iodophenyl)propanoyl)piperazine-1-carbonyl)benzyl) phthalazin-1(2H)-one]

logPCHI ([4]; derived from CHI by equation): 0.8
SMILES: O=C(c1cc(Cc2n[nH]c(=O)c3ccccc23)ccc1F)N1CCN(C(=O)C2CC2)CC1 [Olaparib]
reduction of PARPi-FL uptake (fluorescence signal) (U87 MG cells; 25 µM): 73 ± 11%
reduction of PARPi-FL uptake (fluorescence signal) (U87 MG cells; PARPi-FL 250 nM, inhibitor 25 μM (100-fold), U87 MG cells): 73 ± 10%

SMILES: Cc1cc(C)n2c1C=C1C=CC(CCC(=O)N3CCN(C(=O)c4cc(Cc5n[nH]c(=O)c6ccccc56)ccc4F)CC3)=[N+]1[B-]2(F)F [PARPi-FL, reference compound]
tumor fluorescence, average radiant efficiency ([2]; PARPi-FL 2.5 mg/kg alone): 2.03 × 10^8 ± 1.84 × 10^7

alpha blood half-life [6]: 14.3 min
beta blood half-life [6]: 94.6 min
share of alpha phase [6]: 96.25%
share of beta phase [6]: 3.75%
weighted blood half-life t1/2(weighted) [6]: 17.1 min
uptake in brain [7]: 0.007 ± 0.002 %ID/g
uptake in muscle [7]: 0.04 ± 0.02 %ID/g
uptake in tumor [7]: 0.50 ± 0.08 %ID/g
uptake in liver [8]: 2.35 ± 0.57 %ID/g and 2.4 ± 0.6 %ID/g
uptake in thyroid [8]: 0.24 ± 0.06 %ID/g
uptake in tumor [8]: 0.43 ± 0.06 %ID/g
SMILES: O=C(c1ccc([131I])cc1)N1CCN(C(=O)c2cc(Cc3n[nH]c(=O)c4ccccc34)ccc2F)CC1 [[^131I]-I2-PARPi]
in vitro blood stability [5]: stability of the drug over the course of 120 min
uptake in brain [8]: 0.01 ± 0.00 %ID/g and 0.011 ± 0.003 %ID/g
uptake in muscle [8]: 0.03 ± 0.01 %ID/g and 0.033 ± 0.012 %ID/g
